# Results from publication PMC8939909 (Journal of medicinal chemistry, 2021).
# Legend:
# human LMPTP-A [1] = target: T1, human LMPTP-A (Homo sapiens, UniProt P24666); assay: LMPTP biochemical inhibition assay; conditions: for LMPTP potency, in words (Table 3 series): substitution of the benzyl substituent off the 3-position
# T1 sequence (P24666 1-158): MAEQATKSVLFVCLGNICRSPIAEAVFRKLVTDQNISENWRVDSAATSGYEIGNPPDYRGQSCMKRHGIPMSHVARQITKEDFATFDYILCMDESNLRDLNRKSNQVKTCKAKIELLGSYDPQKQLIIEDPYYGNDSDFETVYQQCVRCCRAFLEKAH
# [2] = system: panel of PTPs (class I tyrosine-specific and dual-specific PTPs); conditions: 40 μM compound; no other PTP tested
# Mouse pharmacokinetics = conditions: in vivo, iv, 2 mg/kg
# human LMPTP-A [3] = target: T1, human LMPTP-A
# VHR = conditions: HTS workflow; cited from earlier work
# LYP = conditions: HTS workflow; cited from earlier work
# HepG2 hepatocytes = assay: Insulin-stimulated AKT Thr308 phosphorylation in HepG2 hepatocytes; type: cell-based, human; conditions: 500 nM overnight, 10 nM insulin 5 min
# diabetic DIO mice = assay: DIO diabetes model; type: in vivo, mouse; conditions: 2 weeks
# [4] = 0.03% in HFD chow, 10 min after IP insulin
compound,measurement,setting,value
Nc1ncn(Cc2c(Cl)cccc2Cl)c2ncnc1-2 [compound 3],fold more potent than 2 (LMPTP),human LMPTP-A [1]; compared with 2,> 10 fold
same,inhibition of other PTPs of the panel,[2],< 50%
same,clearance at 24 h,Mouse pharmacokinetics,5.8 mL/min/kg
Nc1ncn(Cc2ccc(Cl)cc2Cl)c2ncnc1-2 [6c],"LMPTP potency, in words (Table 3 series)",human LMPTP-A [1],decreased potency
Cc1ccccc1-c1nc2c(N)ncn(Cc3c(Cl)cccc3Cl)c-2n1 [5d],mechanism of LMPTP inhibition,human LMPTP-A [3],uncompetitive
same,potency at varying substrate concentrations,"human LMPTP-A [3]; 20 nM human LMPTP-A, increasing OMFP",enhanced potency in the presence of increasing substrate
same,clearance at 24 h,Mouse pharmacokinetics,69 mL/min/kg
Cc1ccccc1-c1nc2c(N)ncn(Cc3c(Cl)cncc3Cl)c-2n1 [6h],"LMPTP potency, in words (Table 3 series)",human LMPTP-A [1],additional boost in potency
same,clearance at 24 h,Mouse pharmacokinetics,103 mL/min/kg
Clc1cccc(Cl)c1Cn1cnc(=NCc2ccco2)c2[nH]cnc21 [compound 2],selectivity for LMPTP over VHR,VHR,high selectivity
same,selectivity for LMPTP over LYP,LYP,high selectivity
Cc1cccc(C)c1Cn1cnc(N)c2ncnc1-2 [6f],fold loss in potency (LMPTP),"human LMPTP-A [1]; benzyl substituent off the 3-position, compared with 2,6-bisubstitution",10 fold
Nc1ncn(Cc2c(Cl)cncc2Cl)c2ncnc1-2 [6g],HepG2 AKT Thr308 phosphorylation after insulin stimulation,HepG2 hepatocytes,substantially increased
same,glucose tolerance (IPGTT),diabetic DIO mice; 0.03% in HFD chow (roughly 30 mg/kg/day),significantly improved
same,fasting insulin levels,diabetic DIO mice; 0.03% in HFD chow,decreased
same,insulin-stimulated phosphorylation of the IR activation motif in liver,diabetic DIO mice; [4],increased
same,phosphorylation of AKT Thr308 in liver,diabetic DIO mice; [4],increased
same,mechanism of LMPTP inhibition,human LMPTP-A [3],uncompetitive
same,clearance at 24 h,Mouse pharmacokinetics,18 mL/min/kg
Nc1ncn(Cc2ccccc2)c2ncnc1-2 [6a],"LMPTP potency, in words (Table 3 series)",human LMPTP-A [1],decreased potency
Nc1ncn(Cc2cccc(Cl)c2)c2ncnc1-2 [6d],"LMPTP potency, in words (Table 3 series)",human LMPTP-A [1],decreased potency
Nc1ncn(Cc2ccccc2Cl)c2ncnc1-2 [6b],"LMPTP potency, in words (Table 3 series)",human LMPTP-A [1],decreased potency
Nc1ncn(Cc2ccc(Cl)cc2)c2ncnc1-2 [6e],"LMPTP potency, in words (Table 3 series)",human LMPTP-A [1],decreased potency
